Earlier results on 1 compound are cited in US20210275558A1, “METHODS FOR TREATING, PHARMACEUTICAL COMPOSITIONS AND USES THEREOF” (Boehringer Ingelheim International GmbH, priority 2018, published 2021).

Data set [1] has as its system patients with type 2 diabetes mellitus and high cardiovascular risk.
For data set [2] the following is noted: in vivo.
The conditions of data set [3]: crystalline form.
The mark [4] stands for this setting: secondary outcomes analyses, patients with type 2 diabetes and established cardiovascular disease.

Turning to `OC[C@H]1O[C@@H](c2ccc(Cl)c(Cc3ccc(O[C@H]4CCOC4)cc3)c2)[C@H](O)[C@@H](O)[C@@H]1O` [empagliflozin, 1-chloro-4-(β-D-glucopyranos-1-yl)-2-[4-((S)-tetrahydrofuran-3-yloxy)-benzyl]benzene], the reflex-mediated sympathetic activation result in data set [1] (in contrast to increases observed with diuretics) is on record as “not being associated with clinically relevant reflex-mediated sympathetic activation”. The “blood pressure and heart rate” value in data set [1] (in vivo) is “blood pressure reductions without clinically relevant changes of the heart rate”. In addition, in data set [1] (patients with type 2 diabetes mellitus and high cardiovascular risk), the “risk of cardiovascular death, hospitalization for heart failure and overall mortality” value is “reduced the risk of cardiovascular death, hospitalization for heart failure and overall mortality”. Moreover, in data set [1] (setting [4]), the “progression of kidney disease” value was “slowed progression of kidney disease” and the “risk for clinically relevant kidney events (inclusive end-stage kidney disease)” value is “reduced the risk for clinically relevant kidney events”. The “diuretic, arterial stiffness and vascular effects” value in data set [2] was “diuretic effect, reduced arterial stiffness and direct vascular effects”. Further, in data set [3], the solubility entry is “good solubility properties” and the stability result is reported as “physico-chemically stable”.
